# Data from ChEMBL document CHEMBL1201861, “Genomics of Drug Sensitity in Cancer screening data, Wellcome Trust Sanger Institute”.
# Tests used:
# Experiment in all cases: cells
# IA-LM = assay type: functional, cell-based; conditions: Homo sapiens;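 note: cell viability assay measuring growth inhibition of human IA-LM cells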
# Description: SANGER: Inhibition of human IA-LM cell growth in a cell viability assay.
# COR-L88 = assay type: functional, cell-based, Homo sapiens; conditions: Homo sapiens, COR-L88;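 note: growth inhibition of COR-L88 cells, read out with a cell viability assay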
# Description: SANGER: Inhibition of human COR-L88 cell growth in a cell viability assay.
# MOLT-4 = assay type: functional, cell-based, Homo sapiens; conditions: Homo sapiens, MOLT-4;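 note: growth inhibition of MOLT-4 cells, determined with a cell viability readout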
# Description: SANGER: Inhibition of human MOLT-4 cell growth in a cell viability assay.
# VA-ES-BJ = assay type: functional, cell-based, Homo sapiens; conditions: Homo sapiens, VA-ES-BJ;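 note: growth inhibition of the VA-ES-BJ cell line, read out by a cell viability assay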
# Description: SANGER: Inhibition of human VA-ES-BJ cell growth in a cell viability assay.
# MV4-11 = assay type: functional, cell-based, Homo sapiens, MV-4-11; conditions: Homo sapiens, MV4-11;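 note: cell viability readout measuring growth inhibition of human MV-4-11 cells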
# Description: SANGER: Inhibition of human MV-4-11 cell growth in a cell viability assay.
# TE-8 = assay type: functional, cell-based, Homo sapiens; conditions: Homo sapiens, TE-8;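 note: growth inhibition of TE-8 cells, measured with a cell viability readout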
# Description: SANGER: Inhibition of human TE-8 cell growth in a cell viability assay.
# NCI-H1092 = assay type: functional, cell-based, Homo sapiens; conditions: Homo sapiens, NCI-H1092;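 note: cell growth inhibition measured with a cell viability assay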
# Description: SANGER: Inhibition of human NCI-H1092 cell growth in a cell viability assay.
# CGTH-W-1 = assay type: functional, cell-based, Homo sapiens; conditions: Homo sapiens, CGTH-W-1;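 note: growth inhibition of human CGTH-W-1 cells measured by cell viability assay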
# Description: SANGER: Inhibition of human CGTH-W-1 cell growth in a cell viability assay.
# K562 = assay type: functional, cell-based, Homo sapiens; conditions: Homo sapiens, K562
# Description: SANGER: Inhibition of human K-562 cell growth in a cell viability assay.
# HCE-4 = assay type: functional, cell-based; conditions: Homo sapiens;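 note: cell viability assay measuring inhibition of growth in the human HCE-4 cell line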
# Description: SANGER: Inhibition of human HCE-4 cell growth in a cell viability assay.
# NCI-H720 = assay type: functional, cell-based, Homo sapiens; conditions: Homo sapiens, NCI-H720;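 note: growth inhibition of human NCI-H720 cells determined by a cell viability assay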
# Description: SANGER: Inhibition of human NCI-H720 cell growth in a cell viability assay.
# HCC1187 = assay type: functional, cell-based, Homo sapiens; conditions: Homo sapiens, HCC1187;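 note: growth inhibition of HCC1187 cells, read out with a cell viability assay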
# Description: SANGER: Inhibition of human HCC1187 cell growth in a cell viability assay.
# BE-13 = assay type: functional, cell-based, Homo sapiens; conditions: Homo sapiens, BE-13;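 note: growth inhibition of human BE-13 cells, measured with a cell viability assay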
# Description: SANGER: Inhibition of human BE-13 cell growth in a cell viability assay.
# NCI-H1355 = assay type: functional, cell-based, Homo sapiens; conditions: Homo sapiens, NCI-H1355;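 note: growth inhibition of human NCI-H1355 cells, read out by a cell viability assay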
# Description: SANGER: Inhibition of human NCI-H1355 cell growth in a cell viability assay.
# NB5 = assay type: functional, cell-based, Homo sapiens; conditions: Homo sapiens, NB5;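 note: growth inhibition of NB5 cells, read out as cell viability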
# Description: SANGER: Inhibition of human NB5 cell growth in a cell viability assay.
# A253 cell line = assay type: functional, cell-based, Homo sapiens; conditions: Homo sapiens, A253;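 note: growth inhibition of A253 cells, read out with a cell viability assay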
# Description: SANGER: Inhibition of human A253 cell growth in a cell viability assay.
# NCI-H1770 = assay type: functional, cell-based, Homo sapiens; conditions: Homo sapiens, NCI-H1770;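 note: growth inhibition of NCI-H1770 cells determined with a viability readout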
# Description: SANGER: Inhibition of human NCI-H1770 cell growth in a cell viability assay.
# OMC-1 = assay type: functional, cell-based, Homo sapiens; conditions: Homo sapiens, OMC-1;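 note: growth inhibition of the OMC-1 cell line, measured by a cell viability assay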
# Description: SANGER: Inhibition of human OMC-1 cell growth in a cell viability assay.
# Calu-6 = assay type: functional, cell-based, Homo sapiens; conditions: Homo sapiens, Calu-6;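 note: growth of human Calu-6 cells, read out by a cell viability assay, IC50 marking inhibition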
# Description: SANGER: Inhibition of human Calu-6 cell growth in a cell viability assay.
# U-266 = assay type: functional, cell-based, Homo sapiens; conditions: Homo sapiens, U-266
# Description: SANGER: Inhibition of human U-266 cell growth in a cell viability assay.
# DJM-1 = assay type: functional, cell-based, Homo sapiens; conditions: Homo sapiens, DJM-1;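 note: growth inhibition of human DJM-1 cells, read out by a cell viability assay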
# Description: SANGER: Inhibition of human DJM-1 cell growth in a cell viability assay.
# KALS-1 = assay type: functional, cell-based, Homo sapiens; conditions: Homo sapiens, KALS-1; read-out: IC50;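 note: growth inhibition of KALS-1 cells, determined with a cell viability assay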
# Description: SANGER: Inhibition of human KALS-1 cell growth in a cell viability assay.
# HEL = assay type: functional, cell-based, Homo sapiens; conditions: Homo sapiens, HEL;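 note: growth inhibition of HEL cells, read out with a cell viability assay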
# Description: SANGER: Inhibition of human HEL cell growth in a cell viability assay.
# LOX IMVI = assay type: functional, cell-based, Homo sapiens; conditions: Homo sapiens, LOX IMVI
# Description: SANGER: Inhibition of human LOXIMVI cell growth in a cell viability assay.
# EW-13 = assay type: functional, cell-based, Homo sapiens; conditions: Homo sapiens, EW-13; read-out: IC50;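 note: growth inhibition of EW-13 cells, read out with a cell viability assay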
# Description: SANGER: Inhibition of human EW-13 cell growth in a cell viability assay.
# RXF 393 = assay type: functional, cell-based, Homo sapiens; conditions: Homo sapiens, RXF 393;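 note: growth inhibition of human RXF 393 cells, read out with a cell viability assay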
# Description: SANGER: Inhibition of human RXF393 cell growth in a cell viability assay.
# GCIY = assay type: functional, cell-based, Homo sapiens; conditions: Homo sapiens, GCIY;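 note: growth inhibition of the human GCIY cell line, read out by a cell viability assay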
# Description: SANGER: Inhibition of human GCIY cell growth in a cell viability assay.
# P30-OHK = assay type: functional, cell-based, Homo sapiens; conditions: Homo sapiens, P30-OHK;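 note: growth inhibition of the P30-OHK cell line, read out with a cell viability assay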
# Description: SANGER: Inhibition of human P30-OHK cell growth in a cell viability assay.
# NCI-H446 = assay type: functional, cell-based, Homo sapiens; conditions: Homo sapiens, NCI-H446;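 note: growth inhibition of NCI-H446 cells determined by a cell viability assay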
# Description: SANGER: Inhibition of human NCI-H446 cell growth in a cell viability assay.
# ES1 = assay type: functional, cell-based, Homo sapiens; conditions: Homo sapiens, ES1;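 note: growth inhibition of ES1 cells, read out with a cell viability assay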
# Description: SANGER: Inhibition of human ES1 cell growth in a cell viability assay.
# ACN = assay type: functional, cell-based, Homo sapiens; conditions: Homo sapiens, ACN;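 note: growth inhibition of the human ACN cell line, read out via cell viability testing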
# Description: SANGER: Inhibition of human ACN cell growth in a cell viability assay.
# SK-LMS-1 = assay type: functional, cell-based, Homo sapiens; conditions: Homo sapiens, SK-LMS-1;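 note: growth inhibition of human SK-LMS-1 cells, read out with a cell viability assay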
# Description: SANGER: Inhibition of human SK-LMS-1 cell growth in a cell viability assay.
# BT-474 = assay type: functional, cell-based, Homo sapiens; conditions: Homo sapiens, BT-474
# Description: SANGER: Inhibition of human BT-474 cell growth in a cell viability assay.
# MPP-89 = assay type: functional, cell-based, Homo sapiens; conditions: Homo sapiens, MPP-89;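 note: growth inhibition of human MPP-89 cells, read out with a cell viability assay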
# Description: SANGER: Inhibition of human MPP-89 cell growth in a cell viability assay.
# NCI-H226 = assay type: functional, cell-based, Homo sapiens; conditions: Homo sapiens, NCI-H226;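 note: cell viability read-out used to gauge growth inhibition of the cells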
# Description: SANGER: Inhibition of human NCI-H226 cell growth in a cell viability assay.
# NCI-H2126 = assay type: functional, cell-based, Homo sapiens; conditions: Homo sapiens, NCI-H2126;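 note: growth inhibition of the cancer cell line, determined with a cell viability readout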
# Description: SANGER: Inhibition of human NCI-H2126 cell growth in a cell viability assay.
# NCI-H1395 = assay type: functional, cell-based, Homo sapiens; conditions: Homo sapiens, NCI-H1395;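 note: cell viability assay read-out quantifying reduced proliferation of human NCI-H1395 cells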
# Description: SANGER: Inhibition of human NCI-H1395 cell growth in a cell viability assay.
# ALL-PO = assay type: functional, cell-based, Homo sapiens; conditions: Homo sapiens, ALL-PO;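 note: growth inhibition of ALL-PO cells, read out by a cell viability assay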
# Description: SANGER: Inhibition of human ALL-PO cell growth in a cell viability assay.
# IST-SL1 = assay type: functional, cell-based, Homo sapiens; conditions: Homo sapiens, IST-SL1;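 note: growth inhibition of human IST-SL1 cells, read out with a cell viability assay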
# Description: SANGER: Inhibition of human IST-SL1 cell growth in a cell viability assay.
# SW 954 = assay type: functional, cell-based, Homo sapiens; conditions: Homo sapiens, SW 954;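 note: growth inhibition of SW954 human cancer cells, read out as cell viability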
# Description: SANGER: Inhibition of human SW954 cell growth in a cell viability assay.
# MHH-NB-11 = assay type: functional, cell-based, Homo sapiens; conditions: Homo sapiens, MHH-NB-11;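 note: growth inhibition of human MHH-NB-11 cells, read out by a cell viability assay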
# Description: SANGER: Inhibition of human MHH-NB-11 cell growth in a cell viability assay.
# EW-3 = assay type: functional, cell-based, Homo sapiens; conditions: Homo sapiens, EW-3;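 note: cell viability assay read-out, IC50 reflects inhibition of growth of the EW-3 cells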
# Description: SANGER: Inhibition of human EW-3 cell growth in a cell viability assay.
# NB10 = assay type: functional, cell-based, Homo sapiens; conditions: Homo sapiens, NB10;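 note: growth inhibition of NB10 cells, read out by a cell viability assay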
# Description: SANGER: Inhibition of human NB10 cell growth in a cell viability assay.
# GI-ME-N = assay type: functional, cell-based, Homo sapiens; conditions: Homo sapiens, GI-ME-N;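 note: growth inhibition of human GI-ME-N cells, read out with a cell viability assay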
# Description: SANGER: Inhibition of human GI-ME-N cell growth in a cell viability assay.
# NCI-H1648 = assay type: functional, cell-based, Homo sapiens; conditions: Homo sapiens, NCI-H1648;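 note: cell viability assay measuring inhibition of NCI-H1648 cell growth, from the Sanger screening data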
# Description: SANGER: Inhibition of human NCI-H1648 cell growth in a cell viability assay.
# TE-12 = assay type: functional, cell-based, Homo sapiens; conditions: Homo sapiens, TE-12;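 note: growth inhibition of TE-12 cells, read out by a cell viability assay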
# Description: SANGER: Inhibition of human TE-12 cell growth in a cell viability assay.
# SK-MEL-2 = assay type: functional, cell-based, Homo sapiens; conditions: Homo sapiens, SK-MEL-2;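 note: growth inhibition of human SK-MEL-2 cells measured with a cell viability assay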
# Description: SANGER: Inhibition of human SK-MEL-2 cell growth in a cell viability assay.
# MN-60 = assay type: functional, cell-based, Homo sapiens; conditions: Homo sapiens, MN-60;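 note: growth inhibition of the MN-60 cell line, determined with a cell viability assay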
# Description: SANGER: Inhibition of human MN-60 cell growth in a cell viability assay.
# SK-N-DZ = assay type: functional, cell-based, Homo sapiens; conditions: Homo sapiens, SK-N-DZ; read-out: IC50;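 note: growth inhibition of the cancer cell line, read out through a viability assay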
# Description: SANGER: Inhibition of human SK-N-DZ cell growth in a cell viability assay.
structure (smiles),measurement,setting,value
Cc1ccc(C(=O)Nc2ccc(CN3CCN(C)CC3)c(C(F)(F)F)c2)cc1C#Cc1cnc2cccnn12 [PONATINIB],IC50,IA-LM,> 0.512 µM
same,IC50,COR-L88,> 0.512 µM
same,IC50,MOLT-4,> 0.512 µM
same,IC50,VA-ES-BJ,> 0.512 µM
same,IC50,MV4-11,< 0.002 µM
same,IC50,TE-8,> 0.512 µM
same,IC50,NCI-H1092,> 0.512 µM
same,IC50,CGTH-W-1,0.00169 µM
same,IC50,K562,> 0.512 µM
same,IC50,HCE-4,> 0.512 µM
same,IC50,NCI-H720,> 0.512 µM
same,IC50,HCC1187,> 0.512 µM
same,IC50,BE-13,0.00259 µM
same,IC50,NCI-H1355,> 0.512 µM
same,IC50,NB5,> 0.512 µM
same,IC50,A253 cell line,> 0.512 µM
same,IC50,NCI-H1770,> 0.512 µM
same,IC50,OMC-1,> 0.512 µM
same,IC50,Calu-6,> 0.512 µM
same,IC50,U-266,> 0.512 µM
same,IC50,DJM-1,> 0.512 µM
same,IC50,KALS-1,> 0.512 µM
same,IC50,HEL,> 0.512 µM
same,IC50,LOX IMVI,> 0.512 µM
same,IC50,EW-13,> 0.512 µM
same,IC50,RXF 393,> 0.512 µM
same,IC50,GCIY,> 0.512 µM
same,IC50,P30-OHK,0.157 µM
same,IC50,NCI-H446,> 0.512 µM
same,IC50,ES1,> 0.512 µM
same,IC50,ACN,0.349 µM
same,IC50,SK-LMS-1,> 0.512 µM
same,IC50,BT-474,> 0.512 µM
same,IC50,MPP-89,0.169 µM
same,IC50,NCI-H226,> 0.512 µM
same,IC50,NCI-H2126,> 0.512 µM
same,IC50,NCI-H1395,> 0.512 µM
same,IC50,ALL-PO,0.124 µM
same,IC50,IST-SL1,> 0.512 µM
same,IC50,SW 954,> 0.512 µM
same,IC50,MHH-NB-11,> 0.512 µM
same,IC50,EW-3,> 0.512 µM
same,IC50,NB10,> 0.512 µM
same,IC50,GI-ME-N,> 0.512 µM
same,IC50,NCI-H1648,> 0.512 µM
same,IC50,TE-12,> 0.512 µM
same,IC50,SK-MEL-2,> 0.512 µM
same,IC50,MN-60,> 0.512 µM
same,IC50,SK-N-DZ,> 0.512 µM
COc1cc(N2CCC(N3CCN(C)CC3)CC2)ccc1Nc1ncc(Cl)c(Nc2ccccc2S(=O)(=O)C(C)C)n1 [TAE-684],IC50,IA-LM,> 2 µM
same,IC50,COR-L88,> 2 µM
same,IC50,MOLT-4,> 2 µM
same,IC50,VA-ES-BJ,> 2 µM
same,IC50,MV4-11,0.394 µM
same,IC50,TE-8,0.429 µM
same,IC50,NCI-H1092,> 2 µM
same,IC50,CGTH-W-1,> 2 µM
same,IC50,K562,> 2 µM
same,IC50,HCE-4,1.61 µM
same,IC50,NCI-H720,1.36 µM
same,IC50,HCC1187,1.86 µM
same,IC50,BE-13,> 2 µM
same,IC50,NCI-H1355,0.552 µM
same,IC50,NB5,1.58 µM
same,IC50,A253 cell line,> 2 µM
same,IC50,NCI-H1770,> 2 µM
same,IC50,OMC-1,> 2 µM
same,IC50,Calu-6,> 2 µM
same,IC50,U-266,1.74 µM
same,IC50,DJM-1,> 2 µM
same,IC50,KALS-1,1.34 µM
same,IC50,HEL,1.15 µM
same,IC50,LOX IMVI,> 2 µM
same,IC50,EW-13,> 2 µM
same,IC50,RXF 393,0.558 µM
same,IC50,GCIY,0.955 µM
same,IC50,P30-OHK,> 2 µM
same,IC50,NCI-H446,> 2 µM
same,IC50,ES1,> 2 µM
same,IC50,ACN,> 2 µM
same,IC50,SK-LMS-1,1.16 µM
same,IC50,BT-474,> 2 µM
same,IC50,MPP-89,0.579 µM
same,IC50,NCI-H226,> 2 µM
same,IC50,NCI-H2126,> 2 µM
same,IC50,NCI-H1395,> 2 µM
same,IC50,ALL-PO,0.245 µM
same,IC50,IST-SL1,> 2 µM
same,IC50,SW 954,1.2 µM
same,IC50,MHH-NB-11,> 2 µM
same,IC50,EW-3,> 2 µM
same,IC50,NB10,1.57 µM
same,IC50,GI-ME-N,1.25 µM
same,IC50,NCI-H1648,0.279 µM
same,IC50,TE-12,0.533 µM
same,IC50,SK-MEL-2,> 2 µM
same,IC50,MN-60,> 2 µM
same,IC50,SK-N-DZ,1.78 µM
